From ChEMBL document CHEMBL3507680, “University of Dundee, Gates Library screen for HepG2 cell viability” come the findings set out here.

This data set is described as follows: Human HepG2 cell viability assay in 384 well format. As to conditions: HepG2 cells, read-out: Inhibition. Further details: dose 125 nL, time 70.5 hour; concentration not given beside the values. The class given is toxicity, cell-based.
On to `O=C(NCC1CC1)C1CCC2(CCN(C(=O)c3cccnc3)CC2)O1` (stereo not drawn), for which the cytotoxicity at 70.5 h is -9.48%.

On to `CCc1nnc(NC(=O)NCCN(C)C(=O)OC(C)(C)C)s1`, for which the cytotoxicity at 70.5 h is -9.9%. For `CN1Cc2c(C(=O)Nc3cccnc3)ncn2-c2ccccc2S1(=O)=O`, the cytotoxicity at 70.5 h was -8.44%. In the case of `O=C(C1CC1)N1CCC2(CC1)COCCN2Cc1ccc(F)cc1`, the cytotoxicity at 70.5 h was determined as 0.119%.

As to `CN(Cc1ccccc1)C1(C(=O)NC(CO)CO)Cc2ccccc2C1`, the cytotoxicity at 70.5 h came to 1.88%. As to `CCc1cnc2c(c1Nc1ccc3c(c1)OCO3)c(=O)n(C)c(=O)n2C`, the cytotoxicity at 70.5 h is -1.57%.

Consider `Cc1ccc(S(=O)(=O)c2ncccc2CN2CCCC2)cc1`, for which the cytotoxicity at 70.5 h was -22.8%. Next, `O=C(c1ccncc1)N1CCN2C[C@H](Oc3cccnc3)C[C@H]2C1`: 2.63%. Next, `Fc1ccccc1CN1CCCC2(CCN(c3ncccn3)CC2)C1`: -3.46%. Turning to `Cc1cnc2n(c1=O)C(CC(=O)NCc1ccco1)CS2` (stereo not drawn), the cytotoxicity at 70.5 h is -0.737%. Next, `CN(C)C(=O)c1c[nH]nc1C1CCN(S(=O)(=O)c2ccccc2)CC1`: -1.91%; `COC(=O)c1ccccc1C(=O)N(CCN(C)C)Cc1sccc1C`: -7.74%; `COCCNC(=O)C1CN(Cc2ccsc2)Cc2ccnn2C1` (stereo not drawn): 1.38%. Then `CCn1cc(NC(=O)NCC(O)c2ccccc2)cn1` (stereo not drawn), with 2.91%; and `CC[C@@]1(O)CCN(Cc2cc(C3CCCCC3)no2)C[C@H]1O`, with -2.92%; and `Cn1cc(CN2CCS(=O)(=O)C(C)(C)C2)cn1`, with -9.13%.

As for `CN1CC2(CCN(C(=O)COc3ccc(Cl)cc3Cl)CC2)OC1=O`, the cytotoxicity at 70.5 h was found to be 14.5%. As for `CN(C)C(C(=O)N1CC(c2ccccn2)C1)c1cccc(F)c1` (stereo not drawn), the cytotoxicity at 70.5 h was -2.09%. Then `CN1CC(=O)N(c2cccc(F)c2)CC12CCN(Cc1ccccn1)C2` (stereo not drawn), with -1.03%; and `Cc1ncoc1C(=O)N1CCOC(Cc2ccccc2)C1` (stereo not drawn), with -6.6%. On to `CSc1ccsc1C(=O)NS(=O)(=O)c1ccc(F)cc1`, for which the cytotoxicity at 70.5 h is -7.27%. Then `COCCn1cc(C(=O)N2CCCC2c2cccc(F)c2)ccc1=O` (stereo not drawn), with -4.27%; and `CN1CCCN(c2nc(C3CCCC3)nc3c2cnn3C)CC1`, with 14.5%. Next, `Fc1ccc(OCCNCCn2cccn2)cc1`: -9.89%. Next, `Cc1cnn(C2CCCN(C(=O)Cc3ccc(C#N)cc3)C2)c1` (stereo not drawn): -2.96%. Consider `CN1CCCC2(CCN(Cc3cncn3C3CCCCC3)C2)C1=O` (stereo not drawn), for which the cytotoxicity at 70.5 h is -4.94%. Next, `CCCc1nccn1-c1ccc(C(O)CN2CCOCC2)cc1` (stereo not drawn): 27.6%; `Cc1cc(S(=O)(=O)N2CCOCC2C#N)ccc1F` (stereo not drawn): 13.3%; `COc1ccc(OC)c(-c2nc(CN(C)Cc3nonc3C)c(C)o2)c1`: 26.4%.

Consider `Cc1ncc2c(n1)CCCC2NC(=O)c1ccccc1Cn1cncn1` (stereo not drawn), for which the cytotoxicity at 70.5 h is 18.1%.

`O=C(NCCn1nc2ccccn2c1=O)c1scnc1Cl`: the cytotoxicity at 70.5 h is -2.79%.

On to `COc1cccc(N2CCN(C(=O)C(O)CC(C)C)CC2=O)c1` (stereo not drawn), for which the cytotoxicity at 70.5 h was -2.41%. Next, `Cc1noc(CCCC(=O)N2CCCC2c2ccsc2)n1` (stereo not drawn): -8.85%; `COC(C)c1nc(CN2CCCNCC2)cs1` (stereo not drawn): -3.19%.

`CC1CCN(c2ccc(NC(=O)CCn3cccn3)cc2)CC1`: the cytotoxicity at 70.5 h is -9.93%. Next, `O=C(CCn1nnc2ccccc2c1=O)N(CC1CCOC1)C1CC1` (stereo not drawn): 1.53%; `CCC(=O)c1ccc(OCC(=O)NCC2CC(CC)=NO2)cc1` (stereo not drawn): -1.34%; `CC(C)c1cc(C(=O)N2CCC3(CCc4ccccc4C(=O)N3)C2)on1` (stereo not drawn): -2.23%. Then `Cc1ncsc1-c1nnc(C2CCN(Cc3cccc(Cl)c3)CC2)o1`, with -1.29%; and `COc1ccc(NC(=O)CCc2c(C)nc3cc(O)nn3c2C)cn1`, with -2.2%. For `COCC(=O)N1CC[C@@H](O)[C@@H]1Cc1ccccc1`, the cytotoxicity at 70.5 h turned out to be 5.48%. Then `N#Cc1ccc(CN2CCN(C(=O)c3cc(C4CC4)[nH]n3)CC2)cc1`, with 0.0729%; and `Cc1[nH]ccc1C(=O)N1CCC(c2nnc(Cn3ccnc3)n2C)CC1`, with -11.8%; and `O=C(Cc1csc(-c2ccccc2F)n1)NCc1ccc(C(=O)O)cc1`, with -10.6%. Then `FC(F)(F)c1ccccc1CN1CCOC[C@H](Oc2cccnc2)C1`, with 1.03%. Next, `Cc1ccc(C(=O)N2[C@@H]3CC[C@H]2CN(C)C(=O)C3)c(=O)[nH]1`: -8.22%; `NC(=O)CN(Cc1ncc(-c2ccccc2)o1)C1CCCC1`: -7.44%; `Cn1cc(Br)c(C(=O)NCCCn2cc(Cl)cn2)n1`: 0.918%. In the case of `CCCn1ccnc1-c1nccn1CCN(C)C`, the cytotoxicity at 70.5 h was -2.58%.

`CCCC(O)CN1CCC(=O)N(CC)Cc2cc3c(cc21)OCO3` (stereo not drawn): the cytotoxicity at 70.5 h was -3.11%. With `CC(O)CN1CCN(C(=O)c2cnc(OC(C)C)c(Cl)c2)CC1` (stereo not drawn), the cytotoxicity at 70.5 h stood at 5%. Next, `Cc1ncc(CNCC(=O)NCC(F)(F)F)n1-c1ccccc1`: -5.37%; `Cc1cc(O)cc(=O)n1CCCC(=O)Nc1n[nH]c2ccccc12`: -11.5%; `COc1ccccc1C(C)N(C)Cc1nc2c(cnn2C)c(=O)[nH]1` (stereo not drawn): -8.94%. Then `N#Cc1ccc(N2CCCN(CC(=O)N3CCOCC3)CC2)cc1`, with 21.1%; and `Cc1cs/c(=N/C(=O)c2csc(NCC(C)C)n2)[nH]1`, with -4.1%. With `Cc1nn(CC(C)C)c(N(C)C)c1CNCCCNS(C)(=O)=O`, the cytotoxicity at 70.5 h came to 31.6%. Next, `Cc1nn(C(C)C)c(C)c1NC(=O)c1ccccc1`: -0.962%; `CC(=O)N1[C@H](CN(C)C)C[C@@H]2CN(C(=O)c3cncc(C)c3)CC[C@@H]21`: -10.6%; `FC(F)(F)CCc1ccnc(N2CCN(Cc3ccccn3)CC2)n1`: 6.16%. Next, `O=C(c1cccnc1)N1C[C@@H]2CC[C@H](C1)N(Cc1cccc(Cl)c1F)C2`: -1.34%; `Cc1ccc(C)c(S(=O)(=O)NC(=O)COc2cccc(C#N)c2)c1`: -2.88%. Then `COc1ccc(-c2ccnc3nc(N4CCCCC4)[nH]c(=O)c23)cc1`, with -9.32%; and `CCc1cc(N2CCC(NC(=O)CCC3CCCO3)CC2)ncn1` (stereo not drawn), with 25.3%; and `Cc1ccc(CN2CC[C@@H](NS(C)(=O)=O)[C@@H]2Cc2ccncc2)o1`, with -10.7%. As for `O=C(NCCc1csc(N2CCCC2)n1)N(C1CCCC1)C1CC1`, the cytotoxicity at 70.5 h is -2.69%. For the compound `COCc1cc(N2CCOC(c3ccc(Cl)c(Cl)c3)C2)ncn1` (stereo not drawn), the cytotoxicity at 70.5 h was -12.1%. Consider `O=C1CC2(CCN(Cc3ccoc3)C2)CN1c1ccc2c(c1)OCO2` (stereo not drawn), for which the cytotoxicity at 70.5 h came to 3.34%. Turning to `CCCc1nc(N2CCC(CCO)CC2)c2cnn(C)c2n1`, the cytotoxicity at 70.5 h was -2.39%. Next, `COC(=O)c1ccc(NC2CCN(CC(F)(F)F)C2=O)cc1C` (stereo not drawn): 26.2%. Then `CCN(CC)c1ncnc2c1CCN(C(=O)Cc1ccccn1)CC2`, with -1.31%; and `CCn1cnnc1CNC(=O)NC(c1ccc(OC)cc1)C1CC1` (stereo not drawn), with -6.45%.

Regarding `CC(C)CN1CCCC(c2nc(O)c3cc(F)ccc3n2)C1` (stereo not drawn), the cytotoxicity at 70.5 h worked out at 1.3%. Take `O=C1CCC2(CCOC2)CN1CCCOc1cccnc1` (stereo not drawn): the cytotoxicity at 70.5 h was found to be 0.321%. As for `Cc1nc(CCNCc2c(C)nn(C)c2N2CCOCC2)cs1`, the cytotoxicity at 70.5 h is -0.903%. For `CN(C(=O)c1ccccc1Cl)C1CCN(c2ccccn2)CC1`, the cytotoxicity at 70.5 h was -3.26%. Then `COc1ccccc1OCc1cc(C(=O)N2CCOCC2CO)n[nH]1` (stereo not drawn), with -5.23%. As for `CCN(Cc1ccco1)C(=O)NCC(c1cccs1)N(C)C` (stereo not drawn), the cytotoxicity at 70.5 h was found to be 20.6%.

Take `COc1ccccc1NC(=O)N(CCO)Cc1ccsc1`: the cytotoxicity at 70.5 h came out at 5.1%. Next, `COCCC1(C(=O)O)CCCN(c2cc(C)c3ccccc3n2)C1` (stereo not drawn): -8.76%.

Turning to `CCc1ccc(S(=O)(=O)Nc2cc(OC)c(OC)cc2C(=O)O)s1`, the cytotoxicity at 70.5 h worked out at 4.71%.

Take `Cn1nc(C2CCCN(Cc3cc(F)cc(F)c3)C2)c2nccnc21` (stereo not drawn): the cytotoxicity at 70.5 h is -1.82%.

For `CC(C)(C)n1nc(C2CC2)cc1C(=O)NC1CCN(CC(N)=O)CC1`, the cytotoxicity at 70.5 h is -12.3%. Then `CCC(C)(COc1ncccc1Cl)NCC(=O)NC1CCCCC1` (stereo not drawn), with -14.9%; and `CCCc1cc(NCc2cc(C)on2)n2nccc2n1`, with 14.2%; and `CC(=O)c1c(C)nn(CC(=O)Nc2ccc(Br)cc2)c1C`, with 4.72%. Next, `CNc1ccc(C)cc1C(=O)N1CCCC2(CCNC2)C1` (stereo not drawn): -8.09%; `Cn1ccc(C(=O)NC2CCC23CCN(C(=O)c2ccncc2)CC3)c1` (stereo not drawn): -6.03%. Then `CN(C)C(=O)C1CCc2nnc(CNC(=O)c3ccc(Cl)cc3Cl)n21` (stereo not drawn), with 2.11%; and `Cc1oncc1C(=O)N[C@@H]1CN(C2CCC2)C[C@@H]2CCCO[C@@H]21`, with -0.67%. With `CCc1ncc2c(n1)CN(Cc1nnc(Cc3ccccc3)o1)CC2`, the cytotoxicity at 70.5 h is -1.62%.

On to `c1cnc(NC[C@@H]2CCC[C@@H]3CN(Cc4csnn4)C[C@@H]32)nc1`, for which the cytotoxicity at 70.5 h is -9.2%. Next, `CC1=N[C@@]2(CC[C@@H]3CN(C(=O)Nc4ccc(F)cc4)C[C@@H]32)C(=O)N1C`: -101%; `O=C(CSc1ccc(F)cc1F)NS(=O)(=O)c1ccc2c(c1)OCCO2`: -3.46%.

Turning to `O=S(=O)(NCc1ccc(S(=O)(=O)N2CCCC2)s1)c1ccc(Cl)c(Cl)c1`, the cytotoxicity at 70.5 h was -22.7%.

As for `Cc1nn(C)cc1CCC(=O)N1CCCC(n2cncn2)C1` (stereo not drawn), the cytotoxicity at 70.5 h turned out to be 6.4%.

As to `CN(C)CC1(O)CCCN(C(=O)c2ccccc2-n2cccn2)C1` (stereo not drawn), the cytotoxicity at 70.5 h came out at 17.7%. Next, `COCC1CCN(c2cc(C3CN(C)CCO3)nc(C)n2)CC1` (stereo not drawn): 0.671%.
